Measured values from US20180055816A1, “PYRANONAPHTHOQUINONE COMPOUNDS AND METHODS OF USE THEREOF” (University of Kentucky Research Foundation, priority 2016, published 2018).

What was measured:
Prx1 = molecular target: T1, Prx1 (Homo sapiens, UniProt Q06830); experiment: Prx1 catalytic activity inhibition; format: biochemical; conditions: recombinant Prx1, 1 hour incubation
T1 sequence (Q06830 1-199): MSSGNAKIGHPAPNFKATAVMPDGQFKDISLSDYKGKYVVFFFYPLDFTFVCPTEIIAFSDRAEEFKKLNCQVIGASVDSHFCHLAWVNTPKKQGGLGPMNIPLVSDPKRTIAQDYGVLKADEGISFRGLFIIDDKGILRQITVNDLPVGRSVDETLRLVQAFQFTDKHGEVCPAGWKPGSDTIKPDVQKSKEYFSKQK
Procedure: The recombinant Prx1 protein was incubated with the indicated concentration of FB, 12, or conoidin A for 1 hour. Data are presented as mean±s.e.m. (n=3 technical replicates per condition). […]. Statistical significance was determined by the Student's t-test.
Prx1 and Grx3 are antioxidant enzymes known to regulate oxidative stress. Prx1 catalyzes peroxide reduction of H2O2, whereas Grx3 functions as glutathione (GSH)-dependent oxidoreductase by participating in the conversion of reduced GSH to oxidized glutathione disulfide (GSSG). […] While Grx3 biochemical assays are lacking, FB and active analogs could lead to a decrease in GSH levels and an increase in GSSG levels in HCT116 cells (FIGS. 23A-B). As antioxidant enzymes utilize cysteine-containing active sites to reduce various cellular peroxide or disulfide substrates, the role of Prx1/Grx3 cysteines in FB ligand-binding was assessed through replacing their cysteines to alanines. […] Finally, mass spectrometry analysis confirmed the covalent modification of Prx1 and Grx3 by FB at these specific target sites. These cumulative studies provide strong validation of Prx1 and Grx3 as the predominate molecular targets of PNQs in cancer cells.

H2O2 = experiment: Cellular H2O2 level in HCT116 cells; format: cell-based, human; conditions: HCT116, 2 μM, 5 h
Procedure: The ROS production was determined using the CellROX Deep Red Flow Cytometry Assay Kit according to the manufacturer's protocol (Life Technologies). Briefly, cells were treated with 2 μM of the indicated compounds or DMSO as control for 1 h. After treatment, cells were incubated with 0.5 μM of CellROX Deep Red reagent for 1 h at 37° C., washed twice with PBS and immediately analyzed by a FACScan flow cytometer. For the measurement of cellular H2O2 level, cells were treated with 2 μM of the indicated compounds for 5 h.

GSSG = experiment: Quantification of glutathione disulfide (GSSG) in HCT116 cells; format: cell-based, human; conditions: HCT116, 2 μM, 5 h
Procedure: Cells were treated with 2 μM of the indicated compounds or DMSO as control for 5 h. Quantification of GSSG was essentially performed using the manufactures instructions for a microplate assay for GSH/GSSG (Oxford Biomedical Research, Inc, Oxford, Mich.). A total number of 0.5×10^6 cells were collected in 1.5 ml centrifuge tubes containing ice-cold buffer with the thiol scavenger to keep GSSG in its oxidized form. The cells were homogenized with a Teflon pestle and the cell suspension sonicated in icy water for 2-3 minutes. Ice-cold metaphosphoric acid was added to deproteinate the samples. The samples were centrifuged at 1000×g at 4° C. and the supernatants were used for determining the GSSG concentration according to the manufactures protocol using a microplate reader with 405 nm filter. The change in GSSG levels in the indicated compound-treated samples was expressed as fold change compared to control (DMSO) treated samples.

AKT phosphorylation = AKT phosphorylation in HCT116 cells (Western blot); format: cell-based, human; conditions: HCT116, 12 h; 2 μM FB or UCF76-A, 0.5 μM AZD8055, 1 μM MK2206
Procedure: HCT116 cells were treated with 1 μM MK2206 and 100 nM PD0325901 alone and in combination, 100 nM rapamycin, 0.5 μM AZD8055, 2 μM UCF76-A or 2 μM FB for 12 h followed by Western blot analysis for the indicated proteins.
(§1) Cells were lysed in NP-40 lysis buffer (50 mM Tris-HCl, pH 7.5, 150 mM NaCl, 1 mM EDTA, 1% NP-40, 10% glycerol, protease and phosphatase inhibitor cocktail). Western blot analysis were performed using equivalent total protein loadings as described previously. For immunoprecipitation, the cell lysates were incubated with the indicated antibody overnight followed by incubation with a 50% slurry of protein G sepharose beads for 3 h at 4° C. The beads were washed three times with the lysis buffer, and the immunoprecipitated protein complexes were resuspended in 2× Laemmli sample buffer followed by western blot analysis.

[1] = tested on: colorectal cancer (CRC) cell lines; experiment: Cytotoxicity against a panel of colorectal cancer cell lines; format: cell-based, human; conditions: 72 h
Excerpt: Human colon (HCT116, DLD-1, T84, HCT15, RKO, SW620) and breast (MDA-MB-231) cancer cell lines were obtained from the American Type Culture Collection (ATCC, Manassas, Va.) and cultured in the appropriate medium with supplements as recommended by ATCC. […] In addition, all the cell lines are routinely checked for morphologic and growth changes, to probe for cross-contaminated, or genetically drifted cells. If any of these features occur, we use the short tandem repeat (STR) profiling service by ATCC to re-authenticate the cell lines. HCT116 cells with stable knockdown of 4E-BP1 and its control stable transfectants were generated as described previously {Ye, 2014 #1007}. For transient transfection, cells were transiently transfected with DNA using Lipofectamine 3000 according to the manufacturer's protocol (Life Technologies, Carlsbad, Calif.).
Cell growth was assessed as described previously. Briefly, 5×10^4 cells were seeded in 6-well plates in triplicates. After 24 h, cells were treated with the indicated compounds and incubated at 37° C. The cells were cultured for 3 days and the number of viable cells was counted using the Vi-CELL XR 2.03 (Beckman Coulter, Brea, Calif.). For apoptosis, cells were analyzed by flow cytometry using the Annexin V-FITC Apoptosis Detection Kit according to the manufacturer's protocol (BD Biosciences, San Jose, Calif.).

4E-BP1 phosphorylation = experiment: Inhibition of 4E-BP1 phosphorylation in HCT116 cells (Western blot); format: cell-based, human; conditions: 12 h
Procedure: Compounds that pass this single dose filter are then tested in a CRC (HCT116) in vitro cytotoxicity assay and, in parallel, an in vitro assay to assess propensity for intracellular reactive oxygen species (ROS) production using the redox sensitive probe CeIIROX® Deep Red reagent (Invitrogen) by flow cytometry analysis (47).
as §1

cellular GSH = experiment: Cellular glutathione (GSH) assay in HCT116 cells; format: cell-based, human; conditions: HCT116, 2 μM, 5 h
Procedure: Cells were treated with 2 μM of the indicated compounds or DMSO as control for 5 h. After treatment, a total number of 1×10^6 cells were lysed in 100 μl of ice-cold NP-40 lysis buffer for 10 min. The lysate was centrifuged for 10 min and the supernatant was used for glutathione assay using the ApoGSH glutathione detection kit according to the manufacturer's protocol (BioVision Research Products, Mountain view, CA). The total amount of GSH was measured using a fluorescence plate reader at Ex./Em.=380/460 nm.

inhibition of Prx1 catalytic activity (Prx1): potently inhibit
Compound: CCCC1OC2CC(=O)OC2C2=C1C(=O)c1c(O)cccc1C2=O (centres unmarked) [FB, frenolicin B]
cellular H2O2 (H2O2): marked increase | GSSG levels (GSSG): increase | inhibition of AKT phosphorylation (AKT phosphorylation): did not inhibit | cytotoxicity against CRC cell lines [1]: potent cytotoxicity | cytotoxicity against CRC cell lines ([1]; listed as frenolicin B): potent cytotoxic activity | inhibition of 4E-BP1 phosphorylation (4E-BP1 phosphorylation): effectively inhibited | GSH levels (cellular GSH): decrease
